Patent US4816487A, “1-(2-hydroxyaryl)-alkane-1-on-oximes-procedure of preparation and use in pharmaceuticals” (Humboldt-Universitaet zu Berlin, priority 1985, dated 1989)

Columns and labels:
sensitised guinea pig = test: allergen (ovalbumin)-induced bronchoconstriction in vivo of sensitised guinea pig (allergic asthma of guinea pig); details: for tolerance of additional/successive ovalbumin injections: pretreated animals, two additional (three successive) injections of 40 μg ovalbumin
Excerpt: These pharmacological properties were largely verified by measuring methods which were, basically, known from the literature. They were, however, applied in a modified form. […] 63, 1 (1979); M. W. Schneider and J. M. Drazen, Amer. Rev. Resp. Dis. 121, 835 (1980); S. S. Yen and W. Kreutner, Agents Actions 10, 174 (1980); S. S. Yen, Prostaglandins 22, 183 (1981); Adcock, J. J.; Garland, L. G.; Brit. J. Pharmacol. 69, 167 (1980); W. Diamantis, J. L. Melton; D. Sofia et al., Europ. J. Pharmacol. 56, 407 (1979); P. Anderson, Brit. J. Pharmacol. 77, 301 (1982)].
It was, remarkably, observed that all control animals died of apnoea after one single intraperitoneal application of ovalbumin (40 μg/kg body weight), following protracted and extremely severe asthmatic reaction (anaphylactic shock?).
Action on allergen-induced bronchoconstriction in vivo of sensitised guinea pig ("allergic asthma of guinea pig"):
This test was applied to male guinea pigs, 30 to 35 days from sensitisation, using 330 mg of aluminium hydroxide and 33 μg of ovalbuminper one kilogram of body weight (fresh preparation in physiological sodium chloride solution).
(Method was modified according to P. Anderson, Brit. J. Pharmacol. 77, 301 (1982).) The animals were anaesthetised by intraperitoneal application of 1.3 g/kg body weight of urethane, while 2 mg/kg body weight of Pavulon® were intravenously injected for muscular relaxation. Intravenous injection of 40 μg of ovalbumin triggered off the allergen-induced bronchoconstriction which developed to the full scale of anaphylactic shock in all control animals, within few seconds. The animals, tracheostomised and with venous catheters, were artificially ventilated at rhythmic negative pressure in a tank respirator (f=16 min^-1; inspiration:expiration=1:1). Gas flow(V), breathing volume (VT), and ECG were checked in the course of pneumotachography. The animals had been pretreated by two intraperitoneal injections of finely crushed 5-methyl-2-hydroxylaurophenone-oxime, suspended in agar-agar. […]

[1] = target: T1, lipoxygenase-1 from soybean (Glycine max, UniProt P08170); test: inhibition of soybean lipoxygenase-1; type: biochemical; details: ultimate concentration 1.0 mM; read-out: Inhibition (percent) of lipoxygenase from soybean
T1 construct: purchased
T1 sequence (P08170 1-839): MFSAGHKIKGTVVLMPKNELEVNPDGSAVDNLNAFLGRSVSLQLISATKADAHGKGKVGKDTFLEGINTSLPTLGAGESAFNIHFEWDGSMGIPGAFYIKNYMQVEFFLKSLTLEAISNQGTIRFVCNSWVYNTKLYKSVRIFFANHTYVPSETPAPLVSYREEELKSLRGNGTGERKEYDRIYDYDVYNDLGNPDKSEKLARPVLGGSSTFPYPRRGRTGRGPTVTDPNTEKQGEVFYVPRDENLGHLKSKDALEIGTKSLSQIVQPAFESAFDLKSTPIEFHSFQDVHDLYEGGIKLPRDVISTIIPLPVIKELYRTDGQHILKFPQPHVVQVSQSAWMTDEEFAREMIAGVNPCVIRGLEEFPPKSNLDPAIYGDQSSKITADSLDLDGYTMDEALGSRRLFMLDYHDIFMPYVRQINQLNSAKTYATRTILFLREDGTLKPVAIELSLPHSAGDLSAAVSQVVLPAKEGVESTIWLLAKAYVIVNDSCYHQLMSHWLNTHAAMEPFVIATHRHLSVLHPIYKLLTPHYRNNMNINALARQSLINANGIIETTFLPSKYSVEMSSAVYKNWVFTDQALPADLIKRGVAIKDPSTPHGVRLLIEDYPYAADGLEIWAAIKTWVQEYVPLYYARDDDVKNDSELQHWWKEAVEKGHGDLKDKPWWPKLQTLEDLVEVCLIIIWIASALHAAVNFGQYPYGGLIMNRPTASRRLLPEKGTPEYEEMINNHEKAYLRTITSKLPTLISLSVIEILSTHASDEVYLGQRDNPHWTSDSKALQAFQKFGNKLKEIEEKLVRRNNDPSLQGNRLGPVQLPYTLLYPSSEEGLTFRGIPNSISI
Procedure: Persuasive evidence to inhibition of lipoxygenase was produced by a suitable animal lipoxygenase which had been isolated from rabbit reticulocytes, using a method by Rapoport and coworkers /S. M. Rapoport et al., Eur. J. Biochem. 96, 545 (1979)/. A final concentration of 1 mM of most of the compounds, according to this invention, produced inhibition of 90 percent or more (cf. Example 20). Significant inhibition was even recordable from a final concentration of 0.1 mM of some of the compounds, according to this invention. Substance concentrations were varied to determine the titration curves of inhibition and from these the half-inhibition concentrations (I50 -values). A half-inhibition concentration of 7 μM was established for 5-methyl-2-hydroxy-laurophenone-oxime, an oxime of high anti-asthmatic effectiveness.
Lipoxygenase from rabbit reticulocytes was obtained in electrophoretically and immunologically pure form by means of the method described in the literature /S. M. Rapoport et al., Eur. J. Biochem. 96, 545 (1979)/. Lipoxygenase activity was determined at 25° C. by amperometric measurement of oxygen consumption by means of a Clark electrode in the following system: 0.1M potassium phosphate, pH 7.4, with 0.2-per-cent sodium cholate and 0.53 mM linoleic acid. The enzyme concentration was […] in the sample for measurement. The substances submitted for testing were dissolved in methyl glycol (fresh distillation in vacuum) and pre-incubated ten minutes with the enzyme at measurement temperature and in the absence of sodium cholate and linoleic acid. […] No remarkable inhibition occurred to control samples under these conditions. Enzyme reaction was started by addition of sodium cholate and linoleic acid. The titration curve of inhibition and, consequently, the concentrations required for inhibition by the order of 50 per cent were determined by variation of active substance concentrations. For comparison, the compounds were tested also on commercial lipoxygenase-1 from soybean.

[2] = tested on: trachea isolated from guinea pig; test: carbachol-induced contraction of trachea isolated from guinea pig; details: spasm by 3.9 μM carbachol; clearly detectable even at 50 μM of active substance
Procedure: Action of 5-methyl-2-hydroxy-laurophenone-oxime on carbachol-induced contraction of trachea isolated from guinea pig:
The compound was checked for anti-asthmatic activity by means of measuring methods well established and known from the literature (cf p. 5) but modified for the purpose of this invention, using a tracheal spiral isolated from guinea pig. Measurements were conducted in thermostat-controlled organ bath in isotonic condition, using a contraction gauge with lever-type sensor, measuring coil, and measuring amplifier (inductive measurement by means of high-frequency oscillating circuit). Air was used for gassing. The suspension solution was of the following composition: 39.46 g of sodium chloride, 2.2 g of potassium chloride, 6.07 g of tris, 1.0 g of calcium chloride, 9.9 g of glucose, 1.0 ml of saturated magnesium chloride solution, 43 ml 1N hydrochloric acid per 5 l, pH 7.4.
Spasm was induced by 3.9 μM of carbachol.

CCCCCCCCCCCC(=NO)c1cc(C)ccc1O [5-methyl-2-hydroxy-laurophenone-oxime]
inhibition of ovalbumin-induced asthma reaction (sensitised guinea pig; 2 x 10 mg/kg i.p., 90 and 60 minutes prior, 40 μg ovalbumin i.v., all probands): Complete inhibition
tolerance of additional/successive ovalbumin injections (sensitised guinea pig): tolerated without reaction
tolerance of additional/successive ovalbumin injections (sensitised guinea pig; listed as 5-methyl-2-hydroxyl-laurophenone-oxime): tolerated without any sign of bronchoconstriction
inhibition at 1000 µM [1]: 67%
dilatation after carbachol-induced spasm [2]: strong dilatation
